# Source: patent publication US6436946B1, “Xanthine-containing compositions for oral administration and uses related thereto” (priority 1997, dated 2002)
# How the values were obtained:
# [1] = system: subjects; test: Stimulant effect: score in video game of skill (Pilot Wing); assay type: in vivo, human; settings: five subjects, crossover with placebo, 180 mg caffeine, Formulation I
# Procedure: Five subjects were tested over a period of three days. […] Both prior to and after consuming the composition, each subject played a video game of skill called Pilot Wing™ made by Nintendo™.
# [2] = system: subjects; test: Standard short-term memory test (repeat series of numbers backward); assay type: in vivo, human; settings: three of the five subjects, 30 minutes after ingestion
# Procedure: The test consisted of an examiner reading a series of numbers to the subject and the subject subsequently being asked to repeat said numbers backward. In all cases, the test was initiated 30 minutes after ingestion of the composition.
structure (smiles),measurement,setting,value
Cn1c(=O)c2c(ncn2C)n(C)c1=O [caffeine],video game score after consuming the composition,[1],"higher scores after consuming the caffeine, compared to consuming the placebo"
same,digits repeated backwards without error,[2],could not repeat this accomplishment
